Laboratory results published in article PMC9101373, “Design of DNA Intercalators Based on 4-Carboranyl-1,8-Naphthalimides: Investigation of Their DNA-Binding Ability and Anticancer Activity” (International Journal of Molecular Sciences, 2022).

Key:
HepG2 cells = test: Oxidative stress (ROS) measurement by flow cytometry, CellROX Deep Red; assay type: cell-based, human; settings: HepG2, 24 h at total IC50
Procedure: To determine the effect of the compounds on HepG2 cells, we analyzed oxidative status after 24 h of treatment as the pathological level of ROS affects the proper functioning of proteins, lipids, and nucleic acids. The compounds were added to the growth medium at a concentration that corresponds to the total IC50 value. After incubation, the cells were stained with CellROX Deep Red Reagent, which is an oxidative stress indicator. This is a non-fluorescent dye that emits red fluorescent signal upon oxidation by ROS. […] We observed an increase in fluorescence intensity of approximately 22–32% as compared to that of control cells (Figure 5 and Figure S298, ESI).
HepG2 cells (3.85 × 10^5) were seeded onto 6-well plates, cultured with EMEM media at 37 °C and 5% CO2 saturation, and incubated until 60–70% confluence. Subsequently, the cells were treated for 24 h with the tested compounds at a concentration corresponding to their total IC50 values. […] The level of intracellular ROS generation was analyzed by staining with CellROX™ Deep Red Reagent (ex/em: ~644/665 nm) according to the manufacturer’s protocol (Thermo Fisher Scientific, Waltham, MA, USA), in which fluorescence was triggered in the presence of ROS. […] The cells were analyzed after incubation with the dye, with excitation at […] by the FACSCalibur flow cytometer (Becton Dickinson), and data were analyzed by FlowJo software. […]

calf thymus DNA (ct-DNA) = test: UV–vis absorption titration with ct-DNA, binding constant Kb; settings: 10 µM compound, ct-DNA 1.25–15 µM
Source text: The interaction of 1,8-naphthalimides bearing carborane clusters with ct-DNA was also studied by UV–vis absorption titration to better understand the mode of interaction and binding strength. For compounds interacting with DNA by intercalation, bathochromic and hypochromic effects are observed in the absorption spectra. The spectral changes observed in the electronic absorption of 6–11, 16–19, 36–43, and 54–61 in the absence and presence of ct-DNA are illustrated in Figures S271–S296 (ESI). Progressive addition of ct-DNA at the concentration of 1.25–15 µM to a fixed amount of modified naphthalic anhydride or naphthalimide (10 µM concentration) decreased absorbance for almost all the tested modified conjugates, except conjugates 14, 15, and 22–27 for which changes in absorbance were not observed. […] Hypochromicity (10–56%) was also observed for all conjugates, with the highest value for compound 40.
To compare the DNA-binding strength of the tested conjugates, we calculated the binding constant Kb, as described in the Materials and Methods section. […] For conjugates 14, 15, and 22–27, the Kb value could not be determined due to the lack of noticeable changes in the UV spectra.
The measurements were performed by adding aliquots of DMSO stock solution of the tested compounds to the buffer solution (pH 7.4, 20 mM, 50 mM NaCl, Tris-HCl buffer, DMSO content of the final solutions = 0.40–0.61%) to the final concentration of 10 µM. The tested compounds were incubated 5 min, with increasing concentrations ranging from 0 to 15 µM of ct-DNA at 37 °C, then the UV–vis absorption spectra, between 310 and 500 nm (310–550 nm for compounds 36–43 and 54–61), were recorded using a GBC Cintra10 UV–vis spectrometer (Dandenong, Australia) equipped with a GBC Thermocell Peltier Power Supply (Dandenong, Australia) using a 1 cm path length cell. The binding constant was calculated according to the following equation [53]: A0/A−A0=εG/εH−G−εG +εG/εH−G−εG ×1/Kb[DNA] where Kb is the binding constant, A0 and A are the absorbance of the free tested compound, and the apparent one, εG and εH−G are their coefficient, respectively, and [DNA] is the concentration of [DNA] in the base pair. The slope to intercept ratio of the plot between A0/A − A0 versus 1/[DNA] yielded the binding constant.

Substance	increase in CellROX fluorescence intensity (ROS) as compared to control (HepG2 cells) [%]	bathochromic shift (calf thymus DNA (ct-DNA))
N-[2-N-Pyrrolidinyl)ethyl]-4-[(6-(2-(1,7-dicarba-closo-dodecaborane-1-yl)-ethylamino)hexyl)amino]-1,8-naphthalimide [Compound 61]	65	
N-[2-N-Pyrrolidinyl)ethyl]-4-[(6-(2-(1,2-dicarba-closo-dodecaborane-1-yl)-ethylamino)hexyl)amino]-1,8-naphthalimide [Compound 60]	64	
N-[2-(Dimethylamino)ethyl]-4-[(2-(2-(1,7-dicarba-closo-dodecaborane-1-yl)-ethylamino)ethyl)amino]-1,8-naphthalimide [Compound 55]		1–2 nm
N-[2-(Dimethylamino)ethyl]-4-[(6-(2-(1,7-dicarba-closo-dodecaborane-1-yl)-ethylamino)hexyl)amino]-1,8-naphthalimide [Compound 59]		1–2 nm
